This note sets out measurements from patent US20220169680A1 (priority 2018, published 2022).

For assay [1], the system named is A549 cells. Type of assay: cell-based.
The next assay relates to HeLa cells. Format: cell-based.
The subject of the next assay is MRCS cells. Format: cell-based.
Assay [2] relates to A549 cells. Type of assay: cell-based. The source holds these as a separate data set.
The next assay relates to 293T cells. Format: cell-based.
The subject of assay [3] is A549 cells. Type of assay: cell-based. This is another data set of the same source.
The subject of assay [4] is A549 cells. Type of assay: cell-based. The source holds these as a separate data set.
Assay [5] has as its system A549 cells. Format: cell-based. This is another data set of the same source.
The test system of assay [6] is 3′ UTR region of RELA gene. Format: cell-based.
Assay [7] deals with A549 cells. Format: cell-based. The source holds these as a separate data set.
The subject of assay [8] is 293T cell, HUVEC cell, HCT-116 cell, MKN-45 cell, MRCS cell, U397 cell and ESF-1 cell. Type of assay: cell-based.
The test system of assay [9] is A549 cells. Format: cell-based. This is another data set of the same source.
The next assay relates to HEK293T cells. Type of assay: cell-based.
Assay [10] relates to LPS-induced acute lung injury in mice. Details: species or system C57 BL/6 male mice. The settings on record: mouse, in vivo.
Assay [11] has as its system A549 cells. Type of assay: cell-based. The source holds these as a separate data set.
Assay [12] concerns A549 cells. Format: cell-based. The source holds these as a separate data set.

“Also recorded” adds a separate entry of the source. Where two headings read alike, the source gives them in different places.

As to “CIYRRLKYGLKRGPSTEG [Jilin-2004(H5N1)-M2-50-67]”, in the assay with A549 cells [1], the cell entry entry is “entered A549 cells” and the “cell entry at lower concentrations” value is “could still enter A549 cells”. In addition, in the assay with HeLa cells, the cell penetration properties entry is on record as “consistent with the results obtained using A549 cells”. Further, in the assay with MRCS cells, the cell penetration properties result is on record as “consistent with the results obtained using A549 cells”.
With “DRFFFKRIYRRLKYRLKRRPST [Jilin-2004(H5N1)-M2-44-65 mut8]”, the “cell-penetrating peptide function compared with the parent polypeptide” value in the assay on A549 cells [1] is listed as “stronger than that of the parent Jilin-2004(H5N1)-M2-44-65 polypeptide”. Further, in the assay on A549 cells [2], the “ability to carry small RNA compared with the other two polypeptides tested” value was “even stronger”, the “carrying Cy3-labeled small RNA into cells” value is recorded as “can carry small RNA into cells” and the “effect compared with transfection reagent RNAiMax” value is on record as “stronger than that of the transfection reagent RNAiMax”. The “cell-penetrating peptide function compared with the parent polypeptide” value with 293T cells is listed as “stronger than that of the parent Jilin-2004(H5N1)-M2-44-65 polypeptide”. In addition, in the assay on MRCS cells, the “cell-penetrating peptide function compared with the parent polypeptide” value is “stronger than that of the parent Jilin-2004(H5N1)-M2-44-65 polypeptide”.
For “DRLFFKCIYRRLK [Jilin-2004(H5N1)-M2-44-56]”, in the assay with A549 cells [3], the “ability to carry proteins into the cell compared with TAT at the same concentration” value is given as “significantly stronger” and the “carrying β-galactosidase protein into the cell” value was “could carry β-galactosidase protein into the cell”. Moreover, the “cell-penetrating peptide function compared with positive control TAT” value in the assay with A549 cells [1] is on record as “stronger than that of the positive control TAT”. In addition, in the assay on A549 cells [4], the “cell entry of polypeptide carrying GFP protein” value is on record as “observed” and the “effect of carrying GFP protein compared with positive control TAT” value is listed as “stronger than that of the positive control TAT”. Moreover, in the assay on A549 cells [2], the “carrying Cy3-labeled small RNA into cells” value was “can carry small RNA into cells” and the “effect compared with transfection reagent RNAiMax” value is on record as “stronger than that of the transfection reagent RNAiMax”. In the assay on A549 cells [5], the “ability to carry small RNA compared with TAT at the same concentration” value is given as “significantly stronger” and the “carrying FAM-labeled small RNA into cells” value was “can all carry small RNA into cells”. In assay [6], the “ability to carry PGY-dsRNA-6 compared with positive control TAT” value was “stronger than that of the positive control TAT”; the “carrying PGY-dsRNA-6 into cells and fulfilling its function (luciferase reporter)” value is “could all carry PGY-dsRNA-6 into cells and fulfill its function”.
“DRLFFKCIYRRLKYGLKRGPST [Jilin-2004(H5N1)-M2-44-65]”: in the assay with A549 cells [1], the “cell entry effect compared with existing cell-penetrating peptides (Table 4)” value was “significantly better cell entry effects than existing cell-penetrating peptides”, the “cell-penetrating peptide function compared with positive control TAT” value is “stronger cell-penetrating peptide functions than that of the positive control TAT” and the “entry effect compared with other C-terminally truncated polypeptides” value was “even better entry effects than other polypeptides”. Also, in the assay with A549 cells [7], the “ability to carry small RNA into cells compared with the transfection reagent RNAiMax group, qPCR” value was “stronger than the transfection reagent RNAiMax group” and the “ability to carry small RNA into cells, qPCR” value was “all had the ability to carry small RNA into cells”. In addition, in the assay on A549 cells [2], the “carrying Cy3-labeled small RNA into cells” value is “can carry small RNA into cells” and the “effect compared with transfection reagent RNAiMax” value is recorded as “stronger than that of the transfection reagent RNAiMax”. Besides, in the assay on 293T cells, the “cell-penetrating peptide function compared with positive control TAT” value is listed as “stronger than that of the positive control TAT”. The “entry effect compared with other fragments in different cell lines” value in assay [8] is reported as “even better entry effects”. Moreover, in the assay on A549 cells [9], the “carrying Cy3-labeled small RNA into cells (super high resolution microscope)” value was “can carry Cy3-labeled small RNA into A549 cells” and the “effect compared with RNAiMax or TAT (super high resolution microscope)” value is recorded as “stronger than that of the transfection reagent RNAiMax or of TAT”. For the same sequence, in the assay on MRCS cells, the “cell-penetrating peptide function compared with positive control TAT” value was “stronger than that of the positive control TAT”.
Turning to “FFKCIYRRLKYGLKRGPS [Jilin-2004(H5N1)-M2-47-64]”, in the assay on A549 cells [1], the cell entry entry is “entered A549 cells”, the “cell entry at lower concentrations” value is “could still enter A549 cells” and the “cell entry effect compared with TAT positive control” value is recorded as “stronger than that of the TAT polypeptide”. In addition, the cell penetration properties entry in the assay on HeLa cells was “consistent with the results obtained using A549 cells”. Besides, the cell penetration properties entry with MRCS cells is “consistent with the results obtained using A549 cells”.
As to GRKKRRQRRRPPQ [TAT, reference compound], the “carrying NS1-GFP plasmid into cells and GFP expression” value in the assay with HEK293T cells is listed as “almost no expression of GFP fluorescent protein”. In the assay with A549 cells [1], the cell entry entry is listed as “did not show cell entry”, the “cell entry after 5 min incubation” value was “the entry into the cell was observed” and the “cell entry at 1 h” value is reported as “the effect was obvious”. For the same sequence, the “ability to carry small RNA (PGY-sRNA-26) into cells, qPCR” value in the assay with A549 cells [7] was “very weak”. Further, the “entry of miR1246 antagomir into lung tissue of mice” value in [10] is on record as “almost no effect”. In addition, the “cell entry of rhodamine-labeled polypeptide” value in the assay on A549 cells [11] is “could all enter A549 cells”.
On to “RLFFKCIYRRLKYGLKRG [Jilin-2004(H5N1)-M2-45-62]”, for which the “carrying NS1-GFP plasmid into cells and GFP expression” value in the assay with HEK293T cells is “could carry NS1-GFP plasmid into HEK293 cells, and GFP protein was expressed in the nucleus”. Besides, in the assay with A549 cells [1], the cell entry entry is reported as “still had a significant cell entry effect; also recorded: entered A549 cells”, the “cell entry at lower concentrations” value is listed as “could still enter A549 cells”, the “cell entry effect compared with TAT positive control” value is “stronger than that of the TAT polypeptide” and the “cell entry effect compared with existing cell-penetrating peptides (Table 4)” value is “significantly better cell entry effects than existing cell-penetrating peptides”. In the assay on A549 cells [1], the “cell entry of FITC-labeled polypeptide” value is on record as “could achieve significant A549 cell entry at all concentrations tested”, the cell-penetrating peptide effect entry was “a good cell-penetrating peptide effect”, the “cell-penetrating peptide function compared with positive control TAT” value is on record as “stronger than that of the positive control TAT” and the “entry effect compared with FITC-labeled TAT (positive control)” value is on record as “much stronger than FITC-labeled TAT polypeptide”. Moreover, in the assay with A549 cells [12], the “ability to carry small RNA compared with TAT at the same concentration” value is recorded as “significantly stronger” and the “carrying Cy3-labeled small RNA into cells” value is “can carry small RNA into cells”. Further, in the assay on A549 cells [7], the “ability to carry small RNA (PGY-sRNA-26) into cells, qPCR” value is reported as “had the ability to carry small RNA into the cells”; the “ability to carry small RNA into cells compared with the transfection reagent RNAiMax group, qPCR” value is “stronger than the transfection reagent RNAiMax group”; the “ability to carry small RNA into cells, qPCR” value is “all had the ability to carry small RNA into cells”. Besides, the “entry effect compared with other fragments in different cell lines” value in [8] is “even better entry effects”. The cell penetration properties result with HeLa cells is on record as “consistent with the results obtained using A549 cells”. For the same sequence, in the assay with A549 cells [5], the “ability to carry small RNA compared with TAT at the same concentration” value is listed as “significantly stronger” and the “carrying FAM-labeled small RNA into cells” value is reported as “can all carry small RNA into cells”. In assay [6], the “ability to carry PGY-dsRNA-6 compared with positive control TAT” value is given as “stronger than that of the positive control TAT”; the “carrying PGY-dsRNA-6 into cells and fulfilling its function (luciferase reporter)” value was “could all carry PGY-dsRNA-6 into cells and fulfill its function”. In addition, the cell penetration properties entry in the assay with MRCS cells is listed as “consistent with the results obtained using A549 cells”. The “cell-penetrating peptide function (confocal imaging)” value in the assay with A549 cells [11] was “all had cell-penetrating peptide functions”.
